According to US20210228685A1, “IMPROVED WEIGHT LOSS THERAPY” (BIOREG LLC, priority 2018, published 2021):

Legend:
[1] = target: T1, ATGL (Mus musculus, UniProt Q8BJ56); assay: Atglistatin inhibition of rLIF- or isoproterenol-induced adipocyte lipolysis; assay type: cell-based; conditions: 1 ng/ml rLIF, increasing concentrations of Atglistatin
T1 construct: endogenous in cells; host or cells: differentiated SVF adipocytes
T1 sequence (Q8BJ56 1-486): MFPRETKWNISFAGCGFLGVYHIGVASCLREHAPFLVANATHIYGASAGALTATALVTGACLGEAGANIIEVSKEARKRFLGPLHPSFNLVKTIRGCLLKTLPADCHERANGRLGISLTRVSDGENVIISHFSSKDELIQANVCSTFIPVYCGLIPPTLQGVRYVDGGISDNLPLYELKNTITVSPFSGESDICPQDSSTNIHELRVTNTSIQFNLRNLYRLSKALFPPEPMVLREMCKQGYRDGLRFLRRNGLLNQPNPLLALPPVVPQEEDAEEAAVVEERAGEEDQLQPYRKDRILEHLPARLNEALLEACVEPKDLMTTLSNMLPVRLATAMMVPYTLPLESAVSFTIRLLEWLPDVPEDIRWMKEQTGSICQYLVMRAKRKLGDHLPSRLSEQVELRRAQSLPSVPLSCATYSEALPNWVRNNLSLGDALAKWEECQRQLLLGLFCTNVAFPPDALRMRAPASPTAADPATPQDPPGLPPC
Protocol: Using the tissue culture adipocyte lipolysis assay, we tested both purified recombinant versions of LIF for their ability to stimulate lipolysis. FIG. 1B-D show adipocyte lipolysis and signaling in wild-type and mutant rLIF-treated adipocytes. Differentiated adipocytes in a 12-well format were treated in a final volume of 1.5 ml of medium supplemented with either the indicated concentration of rLIF or rLIF K159A (FIG. 1B-C); or 30 nM Isoprotererenol or 1 ng/ml rLIF in the absence or presence of the indicated concentration of Atglistatin (FIG. 1D). After incubation for 20 h at 37° C., medium was collected and glycerol concentration was measured using the adipocyte lipolysis assay (FIGS. 1B and D) or adipocyte cells were harvested and subjected to IB analysis (FIG. 1C) ([…]) with the indicated antibody. Each data point (FIG. 1B) represents the mean±SEM of the relative change in medium glycerol concentration compared to conditions containing rLIF without Atglistatin (red, 26 μM) or isoproterenol without Atglistatin (black, 83 μM). As shown in (FIG. 1B), in vitro adipocyte lipolysis activity with WT rLIF was increased over background by ˜5-fold compared with mutant rLIF K159A.
In adipocytes, triglycerides are sequentially hydrolyzed by ATGL, HSL, and monoacylglycerol lipase (MGL). […]

[2] = system: differentiated SVF adipocytes; assay: adipocyte lipolysis assay (glycerol released into the medium); assay type: cell-based; conditions: 12-well format, 20 h at 37° C., without Atglistatin; 1 ng/ml rLIF or 30 nM isoproterenol
Protocol: Conditioned medium from the C26c20 and MC-38 cells was subsequently placed on differentiated adipocytes, and the amount of glycerol released into the medium was quantified. Glycerol release into the medium is a marker for triglyceride lipolysis in adipocytes (27).
SVF preadipocytes were differentiated into adipocytes as follows: On day −3, SVF preadipocytes were set up in 1 ml medium B at a density of 1×10^6 cells/well of 12-well plates or 3.3×10^5 cells/well of 48-well plates. […] After 2 minutes, the amount of absorbance per well was measured using a Tecan microplate reader (absorbance 540 nm). The amount of glycerol concentration released into the medium per condition over background was calculated using the measured absorbance relative to the absorbance of the standardized curve.
To identify the proteins that mediated lipolysis in C26c20 conditioned medium, we carried out a biochemical purification using the lipolysis assay described above using SVF preadipocytes differentiated into adipocytes set up in 12-well plates or 48-well plates. […] After 2 minutes, the amount of absorbance per well was measured using a Tecan microplate reader (absorbance 540 nm). The amount of glycerol concentration released into the medium per condition over background was calculated using the measured absorbance relative to the absorbance of the standardized curve. […]

Row | Compound | inhibition of rLIF-induced lipolysis [1] | medium glycerol concentration [2] [µM]
1 | CN(C)C(=O)Nc1cccc(-c2ccc(N(C)C)cc2)c1 [Atglistatin] | inhibited | 
2 | CC(C)NCC(O)c1ccc(O)c(O)c1 (centres unmarked) [isoproterenol] |  | 83
